Laboratory results reported in US11512053B2, “Arginine methyltransferase inhibitors and uses thereof” (priority 2013, dated 2022).
Read-outs that look alike come from different tables or passages of the source.

Molecular target: full-length human PRMT6 (Flag- and His-tagged) (Homo sapiens, UniProt Q96LA8)
Experiment: PRMT6 Biochemical Assay (3H-SAM Flashplate, peptide substrate)
Conditions: read-out: Biochemical IC50 PRMT6
How it was run: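 Radiometric methyltransferase readout: tritium transfer onto a biotin-tagged histone H4 36-50 peptide bearing monomethyl K44 (75 nM), captured on streptavidin Flashplates after stopping with 400 uM unlabeled SAM. Enzyme is baculovirus-expressed Flag-PRMT6-His at 1 nM, given 30 min with compound at room temperature before adding 200 nM 3H-SAM and 250 nM cold SAM (pH 7.6 Bicine, 2% DMSO). Percent inhibition relative to max/min (1 mM SAH) controls, curve-fit to IC50.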

[1] = single experiment or average of multiple experiments

full-length human PRMT6 (Flag- and His-tagged), sequence (Q96LA8 with tags, fused parts or gaps): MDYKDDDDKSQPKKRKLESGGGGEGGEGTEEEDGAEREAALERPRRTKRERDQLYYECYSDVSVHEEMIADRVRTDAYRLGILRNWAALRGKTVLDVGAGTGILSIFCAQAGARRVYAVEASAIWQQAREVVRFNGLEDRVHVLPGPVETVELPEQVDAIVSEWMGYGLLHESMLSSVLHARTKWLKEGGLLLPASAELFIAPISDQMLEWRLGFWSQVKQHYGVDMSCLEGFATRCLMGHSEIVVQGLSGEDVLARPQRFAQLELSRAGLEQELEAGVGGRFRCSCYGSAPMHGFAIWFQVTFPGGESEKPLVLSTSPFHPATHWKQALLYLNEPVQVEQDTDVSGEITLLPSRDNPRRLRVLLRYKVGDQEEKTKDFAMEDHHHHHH

| IC50 [1] [nM] | IC50 [nM] | Compound |
| --- | --- | --- |
| 70 | – | CNCCN(C)Cc1c[nH]nc1C#Cc1cccc(OC)c1 [Compound 1] |
| 40 | – | CNCCN(C)Cc1c[nH]nc1C#Cc1ccc(C(C)(C)C)cc1 [Compound 2] |
| 30 | – | CNCCN(C)Cc1c[nH]nc1/C=C/c1ccc(C(F)(F)F)cc1 [Compound 6] |
| 20 | – | CNCCN(C)Cc1c[nH]nc1/C=C/c1ccc(OC)cc1 [Compound 7] |
| 40 | – | Cc1ccc(/C=C/c2n[nH]cc2CN(C)CCN)cc1 [Compound 8] |
| 50 | – | COc1cc(/C=C/c2n[nH]cc2CN(C)CCN)cc(OC)c1 [Compound 11] |
| 10 | – | CN(CCN)Cc1c[nH]nc1/C=C/c1ccc(F)cc1F [Compound 13] |
| 930 | – | CN(CCN)Cc1c[nH]nc1/C=C/c1cc(C(F)(F)F)cc(C(F)(F)F)c1 [Compound 14] |
| 40 | – | CN(CCN)Cc1c[nH]nc1/C=C/c1cc(F)cc(F)c1 [Compound 15] |
| 150 | – | CN(CCN)Cc1c[nH]nc1/C=C/c1cccc(C(F)(F)F)c1 [Compound 16] |
| 50 | – | COc1cccc(/C=C/c2n[nH]cc2CN(C)CCN)c1 [Compound 17] |
| 10 | – | CN(CCN)Cc1c[nH]nc1/C=C/c1ccc(C(F)(F)F)cc1 [Compound 18] |
| 170 | – | COC/C=C/c1n[nH]cc1CN(C)CCN [Compound 19] |
| 20 | – | CN(CCN)Cc1c[nH]nc1/C=C/c1cccc(F)c1 [Compound 20] |
| 20 | – | CN(CCN)Cc1c[nH]nc1C1CCCCC1 [Compound 22] |
| 10 | – | CN(CCN)Cc1c[nH]nc1CCc1ccc(F)cc1 [Compound 23, N^1-((3-(4-fluorophenethyl)-1H-pyrazol-4-yl)methyl)-N^1-methylethane-1,2-diamine] |
| 290 | – | CN(CCN)Cc1c[nH]nc1C1=CCCC1 [Compound 25] |
| 510 | – | CN(CCN)Cc1c[nH]nc1C1CCC1 [Compound 26] |
| 290 | – | CCCc1n[nH]cc1CN(C)CCN [Compound 29] |
| 6590 | – | Cc1n[nH]cc1CN(C)CCN [Compound 30] |
| 30 | – | CN(CCN)Cc1c[nH]nc1C1CCCC1 [Compound 31] |
| 20 | – | CNCCN(C)Cc1c[nH]nc1C1CCN(C(=O)Cc2ccccc2)CC1 [Compound 32] |

| IC50 [1] [nM] | IC50 [nM] | Compound |
| --- | --- | --- |
| 20 | – | CN(CCN)Cc1n[nH]cc1C1CCCCC1 [Compound 33] |
| 30 | – | CNCCN(C)Cc1c[nH]nc1C1CCN(C(=O)C(C)C)CC1 [Compound 34] |
| 10 | – | CC1CCC(c2c[nH]nc2CN(C)CCN)CC1 (stereo not shown) [Compound 35] |
| 10 | – | CN(CCN)Cc1n[nH]cc1C1CCC(C)(C)CC1 [Compound 36] |
| 10 | – | CC1CCC(c2n[nH]cc2CN(C)CCN)CC1 (stereo not shown) [Compound 37, N^1-methyl-N^1-((3-(4-methylcyclohexyl)-1H-pyrazol-4-yl)methyl)ethane-1,2-diamine] |
| 10 | – | CN(CCN)Cc1c[nH]nc1C1CCC(C)(C)CC1 [Compound 38, N^1-((3-(4,4-dimethylcyclohexyl)-1H-pyrazol-4-yl)methyl)-N^1-methylethane-1,2-diamine] |
| 10 | – | CNCCN(C)Cc1c[nH]nc1C1CCN(CC(C)C)CC1 [Compound 39, N^1-((3-(1-isobutylpiperidin-4-yl)-1H-pyrazol-4-yl)methyl)-N^1,N^2-dimethylethane-1,2-diamine] |
| 20 | – | CNCCN(C)Cc1c[nH]nc1C1CCNCC1 [Compound 42] |
| 20 | – | CN(CCN)Cc1n[nH]cc1C1CCC(N2CCOCC2)CC1 (stereo not shown) [Compound 44, N^1-methyl-N^1-((4-(4-morpholinocyclohexyl)-1H-pyrazol-3-yl)methyl)ethane-1,2-diamine] |
| 5.6 | < 100 | CN(CCN)Cc1c[nH]nc1C1CCC2(CCCC2)CC1 [Compound 45] |
| 12.2 | < 100 | CNCCN(C)Cc1c[nH]nc1C1CCC2(CCCCC2)CC1 [Compound 46] |
| 17.3 | < 100 | CNCCN(C)Cc1cn(C)nc1C1CCC2(CCCC2)CC1 [Compound 47] |
| 17.8 | < 100 | CNCCN(C)Cc1c[nH]nc1C1CCC2(CCCC2)CC1 [Compound 48] |
| 19.9 | < 100 | CNCCN(C)Cc1cnn(C)c1C1CCC2(CCCC2)CC1 [Compound 49] |
| 20.6 | < 100 | CNCCN(C)Cc1c[nH]nc1C1CCC(C(C)C)CC1 (stereo not shown) [Compound 50] |
| 23.9 | < 100 | CNCCN(C)Cc1c[nH]nc1C1CCC2(CCCO2)CC1 (stereo not shown) [Compound 51] |
| 24.3 | < 100 | CNCCN(C)Cc1c[nH]nc1C1CCC(C)(C)CC1 [Compound 52] |
| 38 | < 100 | CNCCN(C)Cc1c[nH]nc1C1CCC(COC)CC1 (stereo not shown) [Compound 53] |
| 38.2 | < 100 | CNCCN(C)Cc1c[nH]nc1C1CCC2(CCOC2)CC1 (stereo not shown) [Compound 54] |
| 40.4 | < 100 | CNCCN(C)Cc1c[nH]nc1C1CCC(CCOC)CC1 (stereo not shown) [Compound 55] |
| 61.8 | < 100 | CNCCN(C)Cc1c[nH]nc1C1CCC(OC(C)C)CC1 (stereo not shown) [Compound 56] |
| 69.4 | < 100 | CNCCN(C)Cc1c[nH]nc1C1CCC(COC)(COC)CC1 [Compound 57] |

| IC50 [1] [nM] | IC50 [nM] | Compound |
| --- | --- | --- |
| 108 | < 100 | CNCCN(C)Cc1c[nH]nc1C1CCC(OCCOC)CC1 (stereo not shown) [Compound 58] |
| 128 | 101 to 1000 | CNCCN(C)Cc1c[nH]nc1C1CC(C)(C)OC(C)(C)C1 [Compound 59] |
| 155 | 101 to 1000 | CNCCN(C)Cc1c[nH]nc1C1CCC(COCCOC)(COCCOC)CC1 [Compound 60] |
| 49.1 | < 100 | CNCCN(C)Cc1c[nH]nc1C1CCC(COC(C)C)(COC(C)C)CC1 [Compound 61] |
| 29 | < 100 | CNCCN(C)Cc1c[nH]nc1C1CCC2(CCCCC2)OC1 (stereo not shown) [Compound 62] |
| 12.1 | < 100 | CNCCN(C)Cc1c[nH]nc1C1CCC2(CC1)CC(C)OC(C)C2 (stereo not shown) [Compound 63] |
| 41.9 | < 100 | CNCCN(C)Cc1c[nH]nc1C1CCC2(CCC(C)(C)CC2)OC1 (stereo not shown) [Compound 65] |
| 18 | < 100 | CNCCN(C)Cc1c[nH]nc1C1CCC(Oc2ccccc2)CC1 (stereo not shown) [Compound 67] |
| 44 | < 100 | CCC(CC)OC1CCC(c2n[nH]cc2CN(C)CCNC)CC1 (stereo not shown) [Compound 70] |
| 3410 | 3010 to 10000 | CNCCN(C)Cc1c[nH]nc1C1CC(COC)C(C)(C)C(COC)C1 (stereo not shown) [Compound 86] |
| 3730 | 3010 to 10000 | CCOCC1CC(c2n[nH]cc2CN(C)CCNC)CC(COCC)C1(C)C (stereo not shown) [Compound 87] |
| 122 | 101 to 1000 | CNCCN(C)Cc1c[nH]nc1C1CCC(C)(C)C(C(=O)NCC(C)C)C1 (stereo not shown) [Compound 90] |
| 63.1 | < 100 | CNCCN(C)Cc1c[nH]nc1C1CCC(C)(C)C(C(=O)NCCC(C)C)C1 (stereo not shown) [Compound 91] |
| 49 | < 100 | CNCCN(C)Cc1c[nH]nc1C1CCC(C)(C)C(C(=O)NCc2ccccc2)C1 (stereo not shown) [Compound 92] |
| 71.9 | < 100 | CNCCN(C)Cc1c[nH]nc1C1CCC(C)(C)C(C(=O)NCCCOC)C1 (stereo not shown) [Compound 93] |
| 69.2 | < 100 | CNCCN(C)Cc1c[nH]nc1C1CCC(C)(C)C(COCC(C)C)C1 (stereo not shown) [Compound 95] |
| 12.4 | < 100 | CNCCN(C)Cc1c[nH]nc1[C@H]1CC[C@@]2(CC1)CC(C)(C)CO2 [Compound 133, Methyl[2-(methylamino)ethyl]([3-[(5s,8s)-3,3-dimethyl-1-oxaspiro[4.5]decan-8-yl]-1H-pyrazol-4-yl]methyl)amine] |
| 35.1 | < 100 | CNCCN(C)Cc1c[nH]nc1[C@H]1CC[C@]2(CC1)CC(C)(C)CO2 [Compound 134, methyl[2-(methylamino)ethyl]([3-[(5r,8r)-3,3-dimethyl-1-oxaspiro[4.5]decan-8-yl]-1H-pyrazol-4-yl]methyl)amine] |
| 141 | 101 to 1000 | CNCCN(C)Cc1c[nH]nc1[C@H]1CCC(C)(C)[C@@H](C(=O)NCCOC)C1 [Compound 268] |
| 107 | 101 to 1000 | CNCCN(C)Cc1c[nH]nc1[C@@H]1CCC(C)(C)[C@@H](C(=O)NCCOC)C1 [Compound 269] |
| 149 | 101 to 1000 | CNCCN(C)Cc1c[nH]nc1[C@H]1CCC(C)(C)[C@@H](C(=O)NCCCOC)C1 [Compound 270] |
| 121 | 101 to 1000 | CNCCN(C)Cc1c[nH]nc1[C@@H]1CCC(C)(C)[C@@H](C(=O)NCCCOC)C1 [Compound 271, (1S,5R)—N-(3-methoxypropyl)-2,2-dimethyl-5-[4-({methyl[2-(methylamino)ethyl]amino}methyl)-1H-pyrazol-3-yl]cyclohexane-1-carboxamide] |

| Compound | IC50 [1] [nM] | IC50 [nM] |
| --- | --- | --- |
| CNCCN(C)Cc1c[nH]nc1C#Cc1ccc(F)cc1 [Compound 4] | 20 | – |
| CN(CCN)Cc1c[nH]nc1C1=CCOCC1 [Compound 10] | 310 | – |
| CN(CCN)Cc1c[nH]nc1C1CC1 [Compound 12] | 1080 | – |
| CC(C)c1n[nH]cc1CN(C)CCN [Compound 21] | 670 | – |
| CN(CCN)Cc1c[nH]nc1/C=C/Cc1ccccc1 [Compound 24] | 180 | – |
| CN(CCN)Cc1c[nH]nc1C(C)(C)C [Compound 27] | 2410 | – |
| CC(C)Cc1n[nH]cc1CN(C)CCN [Compound 28, N^1-((3-iso-butyl-1H-pyrazol-4-yl)methyl)-N^1-methylethane-1,2-diamine] | 80 | – |
| CNCCN(C)Cc1c[nH]nc1C1CCN(C(=O)CC(C)C)CC1 [Compound 40, 3-methyl-1-(4-(4-((methyl(2-(methylamino)ethyl)amino)methyl)-1H-pyrazol-3-yl)piperidin-1-yl)butan-1-one] | 20 | – |
